Assay results published in ChEMBL document CHEMBL5726153, “Benzimidazole derivatives as kinase inhibitors” (2019).
Several values for one entry are separate records, joined by “and”; a condition that tells them apart may be missing. Equal entries are not always repeated.

Biological target: Voltage-gated inwardly rectifying potassium channel KCNH2 (Homo sapiens, UniProt Q12809)
Assay: Determination of a Possible Activity on hERG: The hERG (human ether-A-go-go-related gene) channel corresponds to an important anti-target for potential new drugs since its inhibition may lead to sudden death. In order to establish whether the compounds of the present invention act on hERG, the following experiment was carried out.The in vitro effects of the compounds indicated in Table 5 on the …
Type: cell-based

Chain of Voltage-gated inwardly rectifying potassium channel KCNH2 (Q12809 whole entry): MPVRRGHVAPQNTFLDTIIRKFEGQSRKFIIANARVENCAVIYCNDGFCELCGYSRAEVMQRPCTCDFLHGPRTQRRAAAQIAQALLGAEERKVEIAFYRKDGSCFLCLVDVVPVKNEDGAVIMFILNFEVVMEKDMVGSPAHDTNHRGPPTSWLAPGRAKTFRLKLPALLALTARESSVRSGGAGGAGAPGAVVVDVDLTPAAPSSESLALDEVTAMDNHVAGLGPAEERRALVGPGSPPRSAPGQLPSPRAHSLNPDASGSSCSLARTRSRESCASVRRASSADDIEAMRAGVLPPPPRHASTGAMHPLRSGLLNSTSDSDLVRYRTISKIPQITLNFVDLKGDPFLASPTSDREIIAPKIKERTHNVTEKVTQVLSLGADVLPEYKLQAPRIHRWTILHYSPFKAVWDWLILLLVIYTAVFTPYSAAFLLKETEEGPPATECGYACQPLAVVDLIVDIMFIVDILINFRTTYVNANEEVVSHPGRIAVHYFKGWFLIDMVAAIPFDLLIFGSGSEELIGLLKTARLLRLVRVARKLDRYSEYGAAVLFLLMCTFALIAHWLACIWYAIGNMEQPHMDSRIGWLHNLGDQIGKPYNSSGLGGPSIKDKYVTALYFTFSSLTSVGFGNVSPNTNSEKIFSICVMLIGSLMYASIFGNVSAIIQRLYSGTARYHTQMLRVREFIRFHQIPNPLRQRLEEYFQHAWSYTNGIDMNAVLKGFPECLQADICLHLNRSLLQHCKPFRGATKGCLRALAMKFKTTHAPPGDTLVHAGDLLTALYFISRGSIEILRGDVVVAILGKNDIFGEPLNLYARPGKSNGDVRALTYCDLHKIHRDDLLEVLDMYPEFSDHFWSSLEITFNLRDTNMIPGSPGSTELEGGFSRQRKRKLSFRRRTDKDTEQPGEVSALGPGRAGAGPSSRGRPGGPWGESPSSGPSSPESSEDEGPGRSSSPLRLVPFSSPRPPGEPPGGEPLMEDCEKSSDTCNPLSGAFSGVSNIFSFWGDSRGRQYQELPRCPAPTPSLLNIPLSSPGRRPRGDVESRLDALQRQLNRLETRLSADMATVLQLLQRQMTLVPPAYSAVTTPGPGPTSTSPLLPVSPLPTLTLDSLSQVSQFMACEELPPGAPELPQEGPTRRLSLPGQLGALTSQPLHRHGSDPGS

CCn1c(N2CCNC(=O)C2)nc2c([N+](=O)[O-])c(Br)c(Br)cc21
IC50: 1.78 µM and 11.9 µM

CCn1c(N2CCNCC2)nc2c([N+](=O)[O-])c(Br)c(Br)cc21
IC50: 16.9 µM
